Assay [1] deals with NF-κB signaling pathway in astrocytes. Briefly: RT Profiler PCR Array, mouse NF-κB Signaling Targets, in astrocytes. It counts as cell-based. To be noted: RAC+BGE-105 [250 nM]. Here is the method: To stimulate astrocytes into a reactive state found in aging and neurodegenerative diseases per previous publications (Liddelow et al., 2017; Barbar et al., 2020), a combination of the cytokines TNF-α and IL-1α, and complement factor C1q, were added at 30 ng/mL, 3 ng/mL, and 400 ng/mL, respectively, into astrocyte culture media to make ‘reactive astrocyte cocktail’ (RAC) media. […] Bachem, Cat. #4029110), BAY-11-7082 (50 μM; Abcam, Cat. #ab141228) or equal volume of vehicle (0.01% DMSO in PBS) (hereafter referred to as ‘RAC treatment’). […] Total RNA purity and concentration was assessed using NanoDrop (ThermoFisher). 500 ng of RNA was used for cDNA synthesis using High-Capacity cDNA Reverse Transcription Kit (Fisher Scientific, Cat. #43-749-66) and total volume of cDNA was diluted to a final concentration of 2 ng/μ1. Gene expression was assessed using a RT Profiler PCR Array (Qiagen, Cat. #330231) specific to mouse NF-κB Signaling Targets according to manufacturer's protocol.

The subject of assay [2] is apelin receptor (APJ) signaling in astrocytes. Briefly: Western blot of APJ, p-AKT and t-AKT in astrocytes. The assay is classed as cell-based, mouse. The method, then: To stimulate astrocytes into a reactive state found in aging and neurodegenerative diseases per previous publications (Liddelow et al., 2017; Barbar et al., 2020), a combination of the cytokines TNF-α and IL-1α, and complement factor C1q, were added at 30 ng/mL, 3 ng/mL, and 400 ng/mL, respectively, into astrocyte culture media to make ‘reactive astrocyte cocktail’ (RAC) media. Astrocytes were cultured in RAC media for 24 hours, with or without various concentrations of BGE-105 (10 nM, 50 nM, 250 nM final concentration), (Pyr^1)-Apelin-13 (50 nM; Bachem, Cat. #4029110), BAY-11-7082 (50 μM; Abcam, Cat. #ab141228) or equal volume of vehicle (0.01% DMSO in PBS) (hereafter referred to as ‘RAC treatment’). Cells in Groups 3-6 were treated with RAC for 24 hours, with or without the test compounds (n=4 per group). • Group 1: Control [CON] • Group 2: CON+BGE-105 (50 nM) [CON+105] • Group 3: Reactive control treated with RAC only [RAC] • Group 4: RAC+BGE-105 (50 nM) [RAC+105] • Group 5: RAC+Pyrm-Apelin-13 (50 nM) • Group 6: RAC+BAY-11-7082 (NF-κB inhibitor; 50 μM) [RAC+BAY]
Mice were handled in accordance with principles and guidelines established by the “Guide for the Care and Use of Laboratory Animals” and overseen by the BioAge Lab's Institutional Animal Care and Use Committee (IACUC). Mouse primary astrocytes were isolated and cultured in 0.01% poly-L-lysine coated 6- or 12-well tissue culture plates at 200,000 or 120,000 cells/well, respectively, with astrocyte growth media as previously described in (Lundquist et al. 2022. Knockdown of Astrocytic Monocarboxylate Transporter 4 in the Motor Cortex Leads to Loss of Dendritic Spines and a Deficit in Motor Learning. Mol Neurobiol 59, 1002-1017). […]
For analysis of astrocyte protein expression, cells were washed after RAC treatment with PBS and lysed with Neuronal Protein Extraction Reagent (Thermo Scientific, Cat. #87792), centrifuged to pellet debris, and supernatant was transferred to a new tube. Total protein concentration was measured by BCA protein assay (Thermo Scientific, Cat. #PI23227).
(In general: Immunoblotting shows a protein as a band on a membrane.)

For the next assay, the system named is 26 month-old mice. Briefly: Total BDNF ELISA in hippocampus of aged mice. It counts as in vivo, mouse. To be noted: 50 mg/kg BID P.O. one week, p<0.05. Here is the method:
The mice were handled in accordance with principles and guidelines established by the “Guide for the Care and Use of Laboratory Animals” and overseen by the BioAge Lab's institutional animal care and use committee (IACUC). Mice were housed conventionally in a constant temperature (20-22° C.) and humidity (40%-60%) animal room with a 12/12 h light/dark cycle and free access to food and water. 26 month-old mice were randomized based on the body weight and body condition scores to two groups (vehicle or BGE-105, n=8). Mice were administered P.O. vehicle or BGE-105 at 50 mg/kg (BID) for one week. […]
Hippocampal samples were homogenized with 30 volumes of radioimmunoprecipitation immunoassay (RIPA) buffer with Halt Protease and Phosphatase Inhibitor (Thermofisher) before being spun at 16,000×g for 20 minutes at 4° C. and supernatant removed to new, labeled tube. Total protein concentrations for each sample were analyzed with Pierce BCA Protein Assay Kit (Thermofisher) according to manufacturer's instructions, then all samples were diluted to 0.2 μg/μL with RIPA buffer.
For quantitative analysis of hippocampal BDNF expression, tissue samples were assessed with Quantikine® enzyme-linked immunosorbent assay (ELISA) for Total BDNF (R&D Systems) according to manufacturer's instructions. […]
A general note: ELISA stands for enzyme-linked immunosorbent assay.

Where [3] appears, read: RAC+BGE-105 [50 nM] versus CON and RAC.

The structures appear in SMILES notation.

Regarding `COc1cccc(OC)c1-n1c(NS(=O)(=O)[C@@H](C)[C@H](C)c2ncc(C)cn2)nnc1-c1cncc(C)c1` [BGE-105, (2S,3R)—N-(4-(2,6-dimethoxyphenyl)-5-(5-methyl-3-pyridinyl)-4H-1,2,4-triazol-3-yl)-3-(5-methyl-2-pyrimidinyl)-2-butanesulfonamide], in assay [1], the “decrease of Cxcl3 expression” value was determined as 55%, the “increase of Csf3 expression” value stood at 16% and the “increase of Il2 expression” value is recorded as 184%. Besides, the “increase of p-AKT expression level, as compared to t-AKT, normalized with β-actin” value in assay [2] (RAC+BGE-105 [50 nM]) was “about 2 folds”. Besides, in assay [2] (setting [3]), the “APJ protein expression normalized with β-actin” value was “No significant fold change” and the t-AKT expression result is listed as “remained comparable”. Moreover, the “increase of concentration of total BDNF in the hippocampus” value in the assay on 26 month-old mice is recorded as 20%.

(Values after patent publication US20240041878A1, “APELIN RECEPTOR MODULATORS FOR TREATMENT OF A DISORDER OR DISEASE ASSOCIATED WITH BBB PERMEABILITY” (BioAge Labs, Inc., priority 2022, published 2024).)
